From ChEMBL document CHEMBL3734700, “Design, synthesis and biological activity of 4-[(benzimidazol-1-yl)methyl]biphenyl-2-sulphonamides as dual angiotensin II and endothelin A receptor antagonists” (Medchemcomm, 2015)
The source made the active and inactive calls. No cut-off for these calls is given here.

Tests used:
[1] = target: T1, Type-1 angiotensin II receptor (Homo sapiens, UniProt P30556); experiment: Displacement of 125I-labeled Sar1-Ile8-angiotensin II from human AT1 receptor incubated for 2 hrs by gamma counting analysis
T1 sequence (P30556 whole entry): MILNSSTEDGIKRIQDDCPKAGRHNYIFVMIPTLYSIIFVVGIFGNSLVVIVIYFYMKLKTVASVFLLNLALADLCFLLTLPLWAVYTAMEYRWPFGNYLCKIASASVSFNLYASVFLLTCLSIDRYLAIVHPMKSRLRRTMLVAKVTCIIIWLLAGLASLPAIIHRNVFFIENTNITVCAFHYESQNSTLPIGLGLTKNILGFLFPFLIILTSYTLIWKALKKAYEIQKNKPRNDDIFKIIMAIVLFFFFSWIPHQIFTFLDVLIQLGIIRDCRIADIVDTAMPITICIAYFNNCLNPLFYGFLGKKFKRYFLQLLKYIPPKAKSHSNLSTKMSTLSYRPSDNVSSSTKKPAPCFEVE

Endothelin-1 receptor = target: T2, Endothelin-1 receptor (Homo sapiens, UniProt P25101); experiment: Displacement of 125I-labeled endothelin 1 from human ETA receptor expressed in CHO-K1 cells incubated for 4 hrs by gamma counting analysis; type: cell-based
T2 sequence (P25101 whole entry): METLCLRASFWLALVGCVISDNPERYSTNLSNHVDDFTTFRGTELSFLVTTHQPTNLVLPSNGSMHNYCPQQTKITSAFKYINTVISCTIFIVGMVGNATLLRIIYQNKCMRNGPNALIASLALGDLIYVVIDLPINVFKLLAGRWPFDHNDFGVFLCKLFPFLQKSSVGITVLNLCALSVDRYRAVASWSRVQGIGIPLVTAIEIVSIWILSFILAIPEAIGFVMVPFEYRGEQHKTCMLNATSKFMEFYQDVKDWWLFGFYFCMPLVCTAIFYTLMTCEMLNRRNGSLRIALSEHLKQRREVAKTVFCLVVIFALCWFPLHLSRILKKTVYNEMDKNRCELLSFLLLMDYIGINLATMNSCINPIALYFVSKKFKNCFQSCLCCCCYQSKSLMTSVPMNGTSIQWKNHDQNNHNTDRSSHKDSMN

Rattus norvegicus = experiment: Antihypertensive activity in spontaneously hypertensive rat assessed as reduction in blood pressure at 20 mg/kg, po by tail plethysmographic analysis; type: functional, organism-based

Structure (SMILES) | IC50 [1] [nM] | IC50 (Endothelin-1 receptor) [nM] | Activity (Rattus norvegicus)
CCCNC(=O)c1cc(C)c2nc(CCC)n(Cc3ccc(-c4ccccc4S(=O)(=O)Nc4onc(C)c4C)cc3)c2c1 | 373 | 35000 | –
CCCc1nc2c(C)cc(C(=O)NCCN3CCN(C)CC3)cc2n1Cc1ccc(-c2ccccc2S(=O)(=O)Nc2onc(C)c2C)cc1 | 47 | 1800 | –
CCCc1nc2c(C)cc(C(=O)NCCN3CCCC3)cc2n1Cc1ccc(-c2ccccc2S(=O)(=O)Nc2onc(C)c2C)cc1 | 95 | 5500 | –
CCCc1nc2c(C)cc(C(=O)NC(C)(C)C)cc2n1Cc1ccc(-c2ccccc2S(=O)(=O)Nc2onc(C)c2C)cc1 | 385 | 140000 | –
CCCc1nc2c(C)cc(C(=O)NCCN3CCCCC3)cc2n1Cc1ccc(-c2ccccc2S(=O)(=O)Nc2onc(C)c2C)cc1 | 94 | 5800 | –
CCCc1nc2c(C)cc(C(=O)NCCN3CCOCC3)cc2n1Cc1ccc(-c2ccccc2S(=O)(=O)Nc2onc(C)c2C)cc1 | 31 | 1400 | –
CCCc1nc2c(C)cc(C(=O)NCc3ccc(OC)cc3)cc2n1Cc1ccc(-c2ccccc2S(=O)(=O)Nc2onc(C)c2C)cc1 | 81 | 388 | –
CCCc1nc2c(C)cc(C(=O)NCCc3cccc(OC)c3)cc2n1Cc1ccc(-c2ccccc2S(=O)(=O)Nc2onc(C)c2C)cc1 | 42 | 24000 | –
CCCc1nc2c(C)cc(C(=O)Nc3ccccc3)cc2n1Cc1ccc(-c2ccccc2S(=O)(=O)Nc2onc(C)c2C)cc1 | 201 | 27000 | –
CCCc1nc2c(C)cc(C(=O)Nc3ccccc3OC)cc2n1Cc1ccc(-c2ccccc2S(=O)(=O)Nc2onc(C)c2C)cc1 | 419 | 137 | –
CCCc1nc2c(C)cc(C(=O)NCCc3ccccc3F)cc2n1Cc1ccc(-c2ccccc2S(=O)(=O)Nc2onc(C)c2C)cc1 | 160 | 262 | –
CCCc1nc2c(C)cc(C(=O)NCc3ccccc3OC)cc2n1Cc1ccc(-c2ccccc2S(=O)(=O)Nc2onc(C)c2C)cc1 | 217 | 310 | –
CCCc1nc2c(C)cc(C(=O)NCc3ccc(OC)c(OC)c3)cc2n1Cc1ccc(-c2ccccc2S(=O)(=O)Nc2onc(C)c2C)cc1 | 56 | 28000 | –
CCCc1nc2c(C)cc(C(=O)NCCc3ccccc3)cc2n1Cc1ccc(-c2ccccc2S(=O)(=O)Nc2onc(C)c2C)cc1 | 8 | 956 | –
CCCc1cc(Cn2c(CC)nc3c(C)cc(C)nc32)ccc1OC(C(=O)NS(=O)(=O)c1ccc(C(C)C)cc1)c1ccc2c(c1)OCO2 (configuration not stated) | 13 | 24 | –
CCCc1nc2c(C)cc(C(=O)NC(C)C)cc2n1Cc1ccc(-c2ccccc2S(=O)(=O)Nc2onc(C)c2C)cc1 | 341 | 277 | –
CCCc1nc2c(C)cc(C(=O)NCCc3ccc(F)cc3)cc2n1Cc1ccc(-c2ccccc2S(=O)(=O)Nc2onc(C)c2C)cc1 | 152 | 56000 | –
CCCc1nc2c(C)cc(C(=O)NCCc3ccc(OC)cc3)cc2n1Cc1ccc(-c2ccccc2S(=O)(=O)Nc2onc(C)c2C)cc1 | 76 | 200000 | –
CCCc1nc2c(C)cc(C(=O)NCc3cccc(OC)c3)cc2n1Cc1ccc(-c2ccccc2S(=O)(=O)Nc2onc(C)c2C)cc1 | 50 | 898 | –
CCCCc1nn(-c2ccccc2Cl)c(=O)n1Cc1ccc(-c2ccccc2S(=O)(=O)Nc2onc(C)c2C)cc1 | 7 | 11 | –
CCCc1nc2c(C)cc(C(=O)NCCc3cc(OC)ccc3OC)cc2n1Cc1ccc(-c2ccccc2S(=O)(=O)Nc2onc(C)c2C)cc1 | 37 | 3000 | –
CCCCNC(=O)c1cc(C)c2nc(CCC)n(Cc3ccc(-c4ccccc4S(=O)(=O)Nc4onc(C)c4C)cc3)c2c1 | 465 | 314 | –
CCCc1nc2c(n1Cc1ccc(-c3ccccc3S(=O)(=O)Nc3onc(C)c3C)c(C#N)c1)C(=O)CCCC2 | 16 | 15 | –
CCCc1nc2c(C)cc(C(=O)NCCc3ccc(OC)c(OC)c3)cc2n1Cc1ccc(-c2ccccc2S(=O)(=O)Nc2onc(C)c2C)cc1 | 92 | 55000 | –
CCCCC1=NC2(CCCC2)C(=O)N1Cc1ccc(-c2ccccc2-c2nnn[nH]2)cc1 | – | – | Active
CCCc1nc2c(C)cc(C(=O)NCc3ccccc3)cc2n1Cc1ccc(-c2ccccc2S(=O)(=O)Nc2onc(C)c2C)cc1 | 28 | 10 | Active
